Measurements published in ChEMBL document CHEMBL3132769, “Fragment growing to retain or alter the selectivity of anchored kinase hinge-binding fragments” (Medchemcomm, 2014).

Tests used:
[1] = biological target: T1, Testis-specific serine/threonine-protein kinase 1 (Homo sapiens) (UniProt Q9BXA7); assay: Inhibition of human full length TSSK1 expressed in baculovirus assessed as substrate phosphorylation using fluorescence-labelled peptides as substrate at 8 uM after 90 mins by microfluidic peptide phosphorylation assay
T1 sequence (whole entry): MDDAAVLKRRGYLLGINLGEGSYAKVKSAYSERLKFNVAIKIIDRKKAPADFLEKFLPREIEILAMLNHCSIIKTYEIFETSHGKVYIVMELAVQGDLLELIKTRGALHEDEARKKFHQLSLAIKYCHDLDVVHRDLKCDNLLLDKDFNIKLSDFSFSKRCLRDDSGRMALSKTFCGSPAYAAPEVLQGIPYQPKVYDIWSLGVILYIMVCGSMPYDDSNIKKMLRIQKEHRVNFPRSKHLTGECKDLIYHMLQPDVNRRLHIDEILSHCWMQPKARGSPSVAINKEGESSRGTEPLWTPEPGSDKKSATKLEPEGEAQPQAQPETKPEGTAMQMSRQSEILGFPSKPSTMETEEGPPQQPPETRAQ

[2] = biological target: Serine/threonine-protein kinase MARK2 (Homo sapiens) (UniProt Q7KZI7); assay: Inhibition of human full length MARK2 expressed in baculovirus assessed as substrate phosphorylation using fluorescence-labelled peptides as substrate at 0.06 uM after 90 mins by microfluidic peptide phosphorylation assay
[3] = biological target: Epidermal growth factor receptor (Homo sapiens) (UniProt P00533); assay: Inhibition of human EGFR catalytic domain expressed in baculovirus assessed as substrate phosphorylation using fluorescence-labelled peptides as substrate at 0.2 uM after 90 mins by microfluidic peptide phosphorylation assay
Sequence of Epidermal growth factor receptor (Homo sapiens) (P00533 whole entry, the tested form may be a part): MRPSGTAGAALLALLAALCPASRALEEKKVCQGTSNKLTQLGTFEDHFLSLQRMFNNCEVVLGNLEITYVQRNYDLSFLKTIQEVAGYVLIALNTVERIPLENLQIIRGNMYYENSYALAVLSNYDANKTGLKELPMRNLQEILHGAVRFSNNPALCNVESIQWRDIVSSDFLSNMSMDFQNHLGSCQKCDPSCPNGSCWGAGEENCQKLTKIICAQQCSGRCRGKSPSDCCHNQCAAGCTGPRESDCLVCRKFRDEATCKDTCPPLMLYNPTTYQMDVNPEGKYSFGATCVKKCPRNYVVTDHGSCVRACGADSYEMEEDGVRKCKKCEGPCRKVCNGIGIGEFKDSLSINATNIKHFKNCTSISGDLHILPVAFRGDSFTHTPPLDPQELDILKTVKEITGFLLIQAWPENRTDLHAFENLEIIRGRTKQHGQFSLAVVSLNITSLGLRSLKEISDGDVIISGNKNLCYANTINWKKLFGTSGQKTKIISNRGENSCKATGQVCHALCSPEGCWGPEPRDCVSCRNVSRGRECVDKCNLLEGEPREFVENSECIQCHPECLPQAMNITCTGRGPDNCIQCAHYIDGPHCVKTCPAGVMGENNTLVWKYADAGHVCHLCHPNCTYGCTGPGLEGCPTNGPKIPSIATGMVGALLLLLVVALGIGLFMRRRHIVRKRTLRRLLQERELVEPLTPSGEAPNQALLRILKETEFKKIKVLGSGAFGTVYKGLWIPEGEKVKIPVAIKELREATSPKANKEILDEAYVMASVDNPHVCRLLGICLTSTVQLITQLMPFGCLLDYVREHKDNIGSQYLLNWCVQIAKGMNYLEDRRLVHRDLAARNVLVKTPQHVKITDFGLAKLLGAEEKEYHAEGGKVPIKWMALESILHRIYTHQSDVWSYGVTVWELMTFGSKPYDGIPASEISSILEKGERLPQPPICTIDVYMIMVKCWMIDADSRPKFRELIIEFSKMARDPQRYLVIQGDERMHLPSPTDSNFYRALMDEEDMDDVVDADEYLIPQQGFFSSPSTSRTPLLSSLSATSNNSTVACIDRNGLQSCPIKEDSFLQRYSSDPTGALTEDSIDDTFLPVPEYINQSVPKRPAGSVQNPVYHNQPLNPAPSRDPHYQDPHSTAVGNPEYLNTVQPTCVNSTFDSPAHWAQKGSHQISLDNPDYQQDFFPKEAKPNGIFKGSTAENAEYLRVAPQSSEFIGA

[4] = biological target: Protein kinase C delta type (Homo sapiens) (UniProt Q05655); assay: Inhibition of human truncated PKC delta expressed in baculovirus assessed as substrate phosphorylation using fluorescence-labelled peptides as substrate at 0.2 uM after 90 mins by microfluidic peptide phosphorylation assay
Sequence of Protein kinase C delta type (Homo sapiens) (Q05655 whole entry, looked up, the tested form may be a part): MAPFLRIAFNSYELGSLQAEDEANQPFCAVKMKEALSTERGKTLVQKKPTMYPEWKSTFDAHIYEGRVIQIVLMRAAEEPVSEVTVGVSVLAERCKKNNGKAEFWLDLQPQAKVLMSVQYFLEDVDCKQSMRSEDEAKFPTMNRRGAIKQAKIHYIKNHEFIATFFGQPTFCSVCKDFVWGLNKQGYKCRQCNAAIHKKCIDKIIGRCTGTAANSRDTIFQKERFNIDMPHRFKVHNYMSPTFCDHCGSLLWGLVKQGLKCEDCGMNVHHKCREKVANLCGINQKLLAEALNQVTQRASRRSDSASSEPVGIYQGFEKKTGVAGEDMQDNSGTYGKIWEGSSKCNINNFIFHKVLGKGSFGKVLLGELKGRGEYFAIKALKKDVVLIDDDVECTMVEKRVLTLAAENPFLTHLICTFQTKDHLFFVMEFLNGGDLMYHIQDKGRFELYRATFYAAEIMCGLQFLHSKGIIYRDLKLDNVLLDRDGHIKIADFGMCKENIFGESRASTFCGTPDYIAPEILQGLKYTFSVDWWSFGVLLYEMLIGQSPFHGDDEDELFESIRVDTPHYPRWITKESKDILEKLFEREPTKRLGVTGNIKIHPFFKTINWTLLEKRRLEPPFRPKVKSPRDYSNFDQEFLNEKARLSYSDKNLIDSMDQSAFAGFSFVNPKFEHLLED

[5] = biological target: T2, Mitogen-activated protein kinase 13 (Homo sapiens) (UniProt O15264); assay: Inhibition of human full length p38 delta expressed in Escherichia coli cell assessed as substrate phosphorylation using fluorescence-labelled peptides as substrate at 2 uM after 90 mins by microfluidic peptide phosphorylation assay
T2 sequence (whole entry): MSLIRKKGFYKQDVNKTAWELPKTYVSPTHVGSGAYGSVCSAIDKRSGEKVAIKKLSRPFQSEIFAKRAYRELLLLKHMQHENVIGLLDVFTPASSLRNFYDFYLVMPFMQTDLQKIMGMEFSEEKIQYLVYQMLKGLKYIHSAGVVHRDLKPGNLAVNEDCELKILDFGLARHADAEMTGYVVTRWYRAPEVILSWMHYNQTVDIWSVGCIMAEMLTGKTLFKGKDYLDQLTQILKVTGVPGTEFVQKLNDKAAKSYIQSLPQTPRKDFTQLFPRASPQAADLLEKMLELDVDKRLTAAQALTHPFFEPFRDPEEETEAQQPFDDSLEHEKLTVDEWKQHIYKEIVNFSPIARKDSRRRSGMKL

[6] = biological target: Receptor-type tyrosine-protein kinase FLT3 (Homo sapiens) (UniProt P36888); assay: Inhibition of human FLT3 catalytic domain expressed in baculovirus assessed as substrate phosphorylation using fluorescence-labelled peptides as substrate at 2 uM after 90 mins by microfluidic peptide phosphorylation assay
Sequence of Receptor-type tyrosine-protein kinase FLT3 (Homo sapiens) (P36888 whole entry, the tested form may be a part): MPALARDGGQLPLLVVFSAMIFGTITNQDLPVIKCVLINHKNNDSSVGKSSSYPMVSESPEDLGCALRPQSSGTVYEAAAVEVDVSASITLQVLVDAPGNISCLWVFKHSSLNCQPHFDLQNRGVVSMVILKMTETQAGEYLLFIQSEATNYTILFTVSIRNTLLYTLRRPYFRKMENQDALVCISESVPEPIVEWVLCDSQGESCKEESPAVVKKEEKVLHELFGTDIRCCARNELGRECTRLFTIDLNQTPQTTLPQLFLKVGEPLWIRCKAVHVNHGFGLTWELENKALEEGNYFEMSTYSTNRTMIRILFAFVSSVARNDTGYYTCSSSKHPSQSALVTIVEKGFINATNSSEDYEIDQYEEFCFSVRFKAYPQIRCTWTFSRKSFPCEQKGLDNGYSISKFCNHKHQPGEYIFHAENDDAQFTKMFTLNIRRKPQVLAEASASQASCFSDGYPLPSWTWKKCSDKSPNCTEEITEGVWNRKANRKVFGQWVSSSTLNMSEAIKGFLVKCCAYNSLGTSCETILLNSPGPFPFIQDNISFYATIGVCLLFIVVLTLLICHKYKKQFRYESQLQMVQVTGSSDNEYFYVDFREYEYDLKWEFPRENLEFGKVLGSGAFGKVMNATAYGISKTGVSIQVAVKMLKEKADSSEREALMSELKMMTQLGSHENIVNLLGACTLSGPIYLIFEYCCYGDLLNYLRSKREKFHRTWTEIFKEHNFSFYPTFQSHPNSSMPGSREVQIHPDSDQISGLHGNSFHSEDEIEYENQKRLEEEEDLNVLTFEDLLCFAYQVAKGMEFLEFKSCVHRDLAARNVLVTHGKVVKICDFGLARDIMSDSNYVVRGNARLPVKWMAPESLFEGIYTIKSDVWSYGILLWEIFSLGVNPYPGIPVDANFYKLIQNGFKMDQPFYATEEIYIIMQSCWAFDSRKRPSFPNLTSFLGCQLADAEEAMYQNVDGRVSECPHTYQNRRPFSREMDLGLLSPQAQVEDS

[7] = biological target: T3, MAP kinase-activated protein kinase 5 (Homo sapiens) (UniProt Q8IW41); assay: Inhibition of human full length PRAK expressed in baculovirus assessed as substrate phosphorylation using fluorescence-labelled peptides as substrate at 2 uM after 90 mins by microfluidic peptide phosphorylation assay
T3 sequence (whole entry): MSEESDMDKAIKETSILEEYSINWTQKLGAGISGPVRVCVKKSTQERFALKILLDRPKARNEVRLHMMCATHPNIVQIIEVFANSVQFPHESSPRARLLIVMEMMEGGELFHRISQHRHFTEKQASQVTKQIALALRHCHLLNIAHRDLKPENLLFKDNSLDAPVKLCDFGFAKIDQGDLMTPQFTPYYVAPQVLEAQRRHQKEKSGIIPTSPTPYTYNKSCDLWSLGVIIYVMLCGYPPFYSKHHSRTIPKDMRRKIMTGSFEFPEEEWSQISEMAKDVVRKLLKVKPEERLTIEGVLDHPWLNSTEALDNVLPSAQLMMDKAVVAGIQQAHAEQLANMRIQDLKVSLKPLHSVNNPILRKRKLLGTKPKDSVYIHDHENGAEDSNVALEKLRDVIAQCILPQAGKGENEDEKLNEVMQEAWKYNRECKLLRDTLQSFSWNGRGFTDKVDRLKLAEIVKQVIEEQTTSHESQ

[8] = biological target: Ribosomal protein S6 kinase alpha-5 (Homo sapiens) (UniProt O75582); assay: Inhibition of human full length MSK1 expressed in baculovirus assessed as substrate phosphorylation using fluorescence-labelled peptides as substrate at 2 uM after 90 mins by microfluidic peptide phosphorylation assay
Sequence of Ribosomal protein S6 kinase alpha-5 (Homo sapiens) (O75582 whole entry, looked up): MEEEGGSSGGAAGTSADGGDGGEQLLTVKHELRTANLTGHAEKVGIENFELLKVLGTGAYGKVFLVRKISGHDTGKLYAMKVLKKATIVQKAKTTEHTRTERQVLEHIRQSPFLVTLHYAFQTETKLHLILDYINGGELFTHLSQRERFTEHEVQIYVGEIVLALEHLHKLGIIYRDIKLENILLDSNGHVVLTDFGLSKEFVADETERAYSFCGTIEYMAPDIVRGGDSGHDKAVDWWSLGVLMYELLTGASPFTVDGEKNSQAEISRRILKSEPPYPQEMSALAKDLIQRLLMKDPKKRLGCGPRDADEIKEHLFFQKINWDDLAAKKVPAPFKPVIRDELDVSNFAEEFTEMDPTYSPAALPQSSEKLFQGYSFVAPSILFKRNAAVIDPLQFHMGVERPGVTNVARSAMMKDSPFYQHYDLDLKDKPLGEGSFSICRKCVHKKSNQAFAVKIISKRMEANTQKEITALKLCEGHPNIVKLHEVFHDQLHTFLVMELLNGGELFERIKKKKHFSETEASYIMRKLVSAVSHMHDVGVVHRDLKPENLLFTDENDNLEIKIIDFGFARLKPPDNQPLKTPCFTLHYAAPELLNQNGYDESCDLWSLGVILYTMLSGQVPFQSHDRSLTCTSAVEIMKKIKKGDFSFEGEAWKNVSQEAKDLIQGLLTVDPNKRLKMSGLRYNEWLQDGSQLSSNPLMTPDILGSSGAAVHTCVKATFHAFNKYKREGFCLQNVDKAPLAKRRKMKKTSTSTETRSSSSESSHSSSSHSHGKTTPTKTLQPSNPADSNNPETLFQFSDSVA

[9] = biological target: T4, Inhibitor of nuclear factor kappa-B kinase subunit beta (Homo sapiens) (UniProt O14920); assay: Inhibition of human full length IKK beta expressed in baculovirus assessed as substrate phosphorylation using fluorescence-labelled peptides as substrate at 9 uM after 90 mins by microfluidic peptide phosphorylation assay
T4 sequence (whole entry): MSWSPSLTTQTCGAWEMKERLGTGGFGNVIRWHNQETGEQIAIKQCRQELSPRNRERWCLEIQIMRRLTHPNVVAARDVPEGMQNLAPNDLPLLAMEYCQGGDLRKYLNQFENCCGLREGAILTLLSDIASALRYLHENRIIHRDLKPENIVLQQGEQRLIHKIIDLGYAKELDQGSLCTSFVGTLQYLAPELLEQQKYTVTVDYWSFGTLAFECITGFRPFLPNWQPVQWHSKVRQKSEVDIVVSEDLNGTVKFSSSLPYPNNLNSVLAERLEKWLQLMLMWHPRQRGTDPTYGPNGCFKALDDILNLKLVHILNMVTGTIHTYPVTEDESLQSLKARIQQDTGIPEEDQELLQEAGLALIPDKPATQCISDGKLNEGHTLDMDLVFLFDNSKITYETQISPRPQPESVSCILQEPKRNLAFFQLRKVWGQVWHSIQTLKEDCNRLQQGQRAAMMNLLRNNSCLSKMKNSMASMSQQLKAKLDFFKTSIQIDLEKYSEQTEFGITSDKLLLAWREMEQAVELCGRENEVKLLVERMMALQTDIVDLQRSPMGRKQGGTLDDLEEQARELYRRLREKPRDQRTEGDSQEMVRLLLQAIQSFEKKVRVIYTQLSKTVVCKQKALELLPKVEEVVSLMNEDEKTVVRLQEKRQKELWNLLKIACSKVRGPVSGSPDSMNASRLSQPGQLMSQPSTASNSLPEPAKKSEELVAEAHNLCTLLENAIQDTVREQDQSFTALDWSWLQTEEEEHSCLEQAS

[10] = biological target: Ribosomal protein S6 kinase alpha-1 (Homo sapiens) (UniProt Q15418); details: 9 uM
Sequence of Ribosomal protein S6 kinase alpha-1 (Homo sapiens) (Q15418 whole entry): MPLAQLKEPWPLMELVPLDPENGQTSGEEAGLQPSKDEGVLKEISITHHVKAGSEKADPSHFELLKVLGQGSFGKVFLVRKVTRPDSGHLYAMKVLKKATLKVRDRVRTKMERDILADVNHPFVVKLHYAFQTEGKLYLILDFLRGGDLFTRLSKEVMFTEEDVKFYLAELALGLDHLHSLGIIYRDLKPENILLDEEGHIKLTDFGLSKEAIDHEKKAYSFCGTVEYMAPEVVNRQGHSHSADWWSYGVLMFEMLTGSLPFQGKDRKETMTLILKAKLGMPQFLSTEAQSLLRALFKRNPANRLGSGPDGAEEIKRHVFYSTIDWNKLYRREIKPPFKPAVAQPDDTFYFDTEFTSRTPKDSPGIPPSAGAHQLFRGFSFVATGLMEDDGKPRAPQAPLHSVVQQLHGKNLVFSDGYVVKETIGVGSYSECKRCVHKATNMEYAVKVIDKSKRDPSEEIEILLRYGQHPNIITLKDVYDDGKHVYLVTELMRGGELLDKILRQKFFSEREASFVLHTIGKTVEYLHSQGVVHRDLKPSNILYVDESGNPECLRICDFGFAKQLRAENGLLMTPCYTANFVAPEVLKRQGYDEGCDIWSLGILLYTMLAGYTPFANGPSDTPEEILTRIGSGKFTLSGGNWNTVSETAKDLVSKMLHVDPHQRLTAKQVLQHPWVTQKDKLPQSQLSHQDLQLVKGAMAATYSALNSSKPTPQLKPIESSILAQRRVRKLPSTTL
Description: Inhibition of human full length RSK1 expressed in baculovirus assessed as substrate phosphorylation using fluorescence-labelled peptides as substrate at 9 uM after 90 mins by microfluidic peptide phosphorylation assay

[11] = biological target: MAP kinase-activated protein kinase 3 (Homo sapiens) (UniProt Q16644); assay: Inhibition of human full length MAPKAPK3 expressed in Escherichia coli cell assessed as substrate phosphorylation using fluorescence-labelled peptides as substrate at 420 uM after 90 mins by microfluidic peptide phosphorylation assay
Sequence of MAP kinase-activated protein kinase 3 (Homo sapiens) (Q16644 whole entry, looked up): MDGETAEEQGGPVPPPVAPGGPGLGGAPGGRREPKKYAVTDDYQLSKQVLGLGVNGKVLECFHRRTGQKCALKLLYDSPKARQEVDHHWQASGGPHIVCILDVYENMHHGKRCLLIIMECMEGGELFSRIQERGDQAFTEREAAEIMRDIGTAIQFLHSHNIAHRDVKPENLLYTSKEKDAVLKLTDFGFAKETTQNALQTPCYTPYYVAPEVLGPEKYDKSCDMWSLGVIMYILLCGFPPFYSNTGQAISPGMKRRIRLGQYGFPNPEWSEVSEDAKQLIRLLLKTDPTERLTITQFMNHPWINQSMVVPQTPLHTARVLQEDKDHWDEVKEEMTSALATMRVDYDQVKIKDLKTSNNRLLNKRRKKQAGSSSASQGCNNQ

## NCC1CCN(c2ncnc3[nH]ccc23)CC1
[1]
  inhibition: 25.5%

## NC1(Cc2ccc(Cl)cc2)CCN(c2ncnc3[nH]ccc23)CC1
[2]
  inhibition: 0%

## Clc1ccc(C2(c3ccc(-c4ncnc5[nH]cnc45)cc3)CCNCC2)cc1
[3]
  inhibition: 2.5%
[4]
  inhibition: 37.5%

## NC1CCN(c2ncnc3[nH]ccc23)CC1
[5]
  inhibition: 8%
[6]
  inhibition: 0%
[7]
  inhibition: 7%
[8]
  inhibition: 0.5%

## NCC1CN(c2ncnc3[nH]c4cnccc4c23)CCO1 (stereo unspecified)
[9]
  inhibition: 83%
[10]
  inhibition: 91%

## c1nc(N2CCOCC2)c2nc[nH]c2n1
[11]
  inhibition: 96.5%
